How the values were obtained:
[1] = Solubility of the drug in the colonic pH range; format: physicochemical; conditions: pH 4.5 to 8.0
[2] = Dissolution of ridogrel and sodium ridogrel from hard gelatin capsules, USP apparatus 2, 100 rpm, 900 mL phosphate buffer; format: physicochemical; conditions: 10 mg in size 2 hard gelatin capsule, pH 5, 6 and 7
Description: Into each of three size 2 hard gelatin capsules was weighed 10 mg of ridogrel. Into another three capsules was weighed 10 mg of the sodium ridogrel lyophilisate. The dissolution of ridogrel and sodium ridogrel into 900 mL of phosphate buffer at pH 5, 6 and 7 was tested (USP apparatus 2, 100 rpm).

Q: With `O=C(O)CCCCO/N=C(/c1cccnc1)c1cccc(C(F)(F)F)c1` [ridogrel, (E)-5-[[[3-pyridinyl[3-(trifluoromethyl)phenyl]methylene]amino]oxy]pentanoic acid] as the compound, how does the “solubility in the colonic pH range” value [1] read?
A: low

Q: For `O=C([O-])CCCCON=C(c1cccnc1)c1cccc(C(F)(F)F)c1.[Na+]` [sodium ridogrel], which “dissolution rate as a function of pH” value [2] is on record?
A: largely independent of pH

Q: What about the “dissolution rate as a function of pH” value ([2]; listed as sodium salt of ridogrel) of the same compound?
A: greatly improved dissolution rate

— patent US20020015729A1, “COLONIC DELIVERY OF WEAK ACID DRUGS” (priority 1996, published 2002)
